# US6642251B1, “Geometrically restricted 2-indolinone derivatives as modulators of protein kinase activity” (Sugen, Inc., priority 1998, dated 2003)
# System: A375 cells (melanoma)
# Assay: A375 sc xenograft animal model
# Assay type: in vivo, athymic mice (BALB/c, nu/nu)
# Conditions: for % inhibition: vs vehicle
# Source text: The ability of human tumors to grow as xenografts in athymic mice (e.g., Balb/c, nu/nu) provides a useful in vivo model for studying the biological response to therapies for human tumors. Since the first successful xeno-transplantation of human tumors into athymic mice, (Rygaard and Poylsen, 1969, Acta Pathol. Microbial. Scand., 77:758-760), many different human tumor cell lines (e.g., mammary, lung, genitourinary, gastro-intestinal, head and neck, glioblastoma, bone, and malignant melanomas) have been transplanted and successfully grown in nude mice. The following assays may be used to determine the level of activity, specificity and effect of the different compounds of the present invention. Three general types of assays are useful for evaluating compounds: cellular/catalytic, cellular/biological and in vivo. The object of the cellular/catalytic assays is to determine the effect of a compound on the ability of a TK to phosphorylate tyrosines on a known substrate in a cell. The object of the cellular/biological assays is to determine the effect of a compound on the biological response stimulated by a TK in a cell. The object of the in vivo assays is to determine the effect of a compound in an animal model of a particular disorder such as cancer.
# Suitable cell lines for subcutaneous xenograft experiments include C6 cells (glioma, ATCC #CCL 107), A375 cells (melanoma, ATCC #CRL 1619), A431 cells (epidermoid carcinoma, ATCC #CRL 1555), Calu 6 cells (lung, ATCC #HTB 56), PC3 cells (prostate, ATCC #CRL 1435), SKOV3TP5 cells and NIH 3T3 fibroblasts genetically engineered to overexpress EGFR, PDGFR, IGF-1R or any other test kinase. The following protocol can be used to perform xenograft experiments:
# Female athymic mice (BALB/c, nu/nu) are obtained from Simonsen Laboratories (Gilroy, Calif.). All animals are maintained under clean-room conditions in Micro-isolator cages with Alpha-dri bedding. They receive sterile rodent chow and water ad libitum.
# Cell lines are grown in appropriate medium (for example, MEM, DMEM, Ham's F10, or Ham's F12 plus 5%-10% fetal bovine serum (FBS) and 2 mM glutamine (GLN)). All cell culture media, glutamine, and fetal bovine serum are purchased from Gibco Life Technologies (Grand Island, N.Y.) unless otherwise specified. All cells are grown in a humid atmosphere of 90-95% air and 5-10% CO2 at 37° C. All cell lines are routinely subcultured twice a week and are negative for mycoplasma as determined by the Mycotect method (Gibco).
# Cells are harvested at or near confluency with 0.05% Trypsin-EDTA and pelleted at 450×g for 10 min. Pellets are resuspended in sterile PBS or media (without FBS) to a particular concentration and the cells are implanted into the hindflank of the mice (8-10 mice per group, 2-10×10^6 cells/animal). Tumor growth is measured over 3 to 6 weeks using venier calipers. Tumor volumes are calculated as a product of length×width×height unless otherwise indicated. P values are calculated using the Students t-test. Test compounds in 50-100 μL excipient (DMSO, or VPD:D5W (U.S. Pat. No. 5,610,173 to Sxhwartz, et al.), can be delivered by IP injection at different concentrations generally starting at day one after implantation.
compound,measurement,setting,value
"COc1ccc2c(c1)C(CC(=O)[O-])CC2=C1C(=O)Nc2ccccc21.[Na+] (stereo not drawn) [Compound 13, [6-Methoxy-3-(2-oxo-1,2-dihydroindol-3-ylidene)-indan-1-yl]acetic Acid Sodium Salt]",Average Tumor Volume,50 mg/kg/day,569.9 mm3
same,% inhibition,50 mg/kg/day,24.6%
same,Average Tumor Volume,100 mg/kg/day,324.4 mm3
same,% inhibition,100 mg/kg/day,57.1%
same,Average Tumor Volume,200 mg/kg/day,278.8 mm3
same,% inhibition,200 mg/kg/day,63.1%
